# How the values were obtained:
# [1] = tested on: SMB-231 pancreatic cancer cells; experiment: In vitro proliferation inhibition of SMB-231 pancreatic cancer cells; assay type: cell-based; conditions: concentration of 1 uM; compared with blank control group
# Method: (§1) The SMB-231 pancreatic cancer cells were thawed, and cultured in a changed medium after 24 hours. Medium preparation method: 6% serum, 1% of a bispecific antibody+a 1640 basal medium. After grown to confluent, the cells were digested and subcultured to expand the number of cells. When reached the required amount, the cells were digested by trypsin, centrifuged, and resuspended in PBS to prepare a cell suspension of 1×10^8 cells/ml. A part of the cell suspension was added with the monotropein, desacetyl asperulosidic acid, asperuloside, and asperulosidic acid respectively, and the inhibition rate (%) of tumor cell proliferation by each of these different compounds was examined.
# [2] = tested on: HT29 transplanted tumor; experiment: Transplanted tumor of HT29 colon cancer cells in nude mice; assay type: in vivo; conditions: 2 mg/kg in combination with 5-fluorouracil at half dose (20 mg/kg), once a day; effect comparable to 5-fluorouracil alone 40 mg/kg
# Method: as §1, with “HT29” for “SMB-231 pancreatic cancer”
# (§2) Male adult nude mice, which had the body weights of 20-24 g, were purchased from Guangdong Medical Laboratory Animal Center. After 7 days of adaptive feeding of the animals, except for the blank group, the remaining animals were injected with 0.2 ml of a cell suspension in PBS at ventrodorsal and scapula sites of them, the response conditions of the animals were observed, and the body weights of the animals were determined once a week. After 2 weeks of observation, the animals were grouped into the following groups according to tumor size: a blank group; a model group; a 5-fluorouracil control group (5-Full, 40 mg/kg); monotropein+5-fluorouracil (2 mg/kg monotropein+20 mg/kg 5-fluorouracil), desacetyl asperulosidic acid+5-fluorouracil (2 mg/kg desacetyl asperulosidic acid+20 mg/kg 5-fluorouracil), asperuloside+5-fluorouracil (2 mg/kg asperuloside+20 mg/kg 5-fluorouracil), asperulosidic acid+5-fluorouracil (2 mg/kg asperulosidic acid+20 mg/kg 5-fluorouracil), these groups being labeled as: Mo, As, Aa, Da. Each group included 8 animals; and administration was conducted once a day.
# (§3) The status, death conditions, and eating and drinking conditions of the animals were observed daily. The body weights of the animals were determined once a week and the tumor size of the animals was determined every 4 days. The tumor volume of the animals was determined by using a vernier caliper. After 1 month of administration, the animals were sacrificed after blood was sampled from the orbit thereof, and the tumor was separated and weighed.
# [3] = tested on: transplanted tumor of MB-231 pancreatic cancer cells; experiment: Transplanted tumor of MB-231 pancreatic cancer cells in nude mice; assay type: in vivo; conditions: 2 mg/kg in combination with 5-fluorouracil at half dose (20 mg/kg), once a day; effect comparable to 5-fluorouracil alone 40 mg/kg
# Method: as §1
# as §2, with “of a SMB-231 pancreatic cancer cell suspension” for “of a cell suspension”
# as §3
# [4] = tested on: vitamin D receptor; experiment: Expression of vitamin D receptor in colon tissues, Experiment 2 (Western blot, immunohistochemistry); assay type: in vivo, Balb/c mice; conditions: compared with the blank group; VD3 0.2 mg/kg, four compounds 2 mg/kg
# Method: (§4) Experimental method: 70 Balb/c mice of 6-8 weeks were purchased from the Experimental Animal Center in Guangzhou University of Chinese Medicine, weighed about 18-22 g, and subjected to adaptive feeding for 10 days. Modeling was divided into three stages. In the first stage, except for the normal group of animals being given saline injection, each of the other animals were intraperitoneally injected with a carcinogen AOM (10 mg/kg), and given free access to 2% DSS water from the next day for 7 days, and then given access to replaced regular drinking water for 14 days. In the second stage, the animals were given free access to 2% DSS water for 10 days, and then given access to replaced regular drinking water for 14 days. In the third stage, the animals were given free access to 2% DSS water for 10 days, and then given access to replaced regular drinking water for 11 days. The normal group was given access to regular drinking water throughout the experiment. The diet, water drinking and body weights of the animals were recorded daily and DAI scores were made, and the animals were killed and harvested at the 10th week. In this experiment, the animals were divided into groups and administrated on the first day of a modeling period of the second stage, where a total of 7 groups were set, each group including 10 animals. The first group was a blank control group (control) that was given access to drinking water by gavage; the second group was a model group (model), in which a total of 10 animals were given access to drinking water by gavage; the third group was a vitamin D3 positive administration control group (VD3, 0.2 mg/kg); and the fourth to seventh groups were given monotropein, desacetyl asperulosidic acid, asperuloside, and asperulosidic acid (groups labeled as: Mo, As, Aa, Da), respectively at a given dose of 2 mg/kg. Dosing was conducted once a day until the end of the experiment. At the end of the experiment, the animals were anesthetized and harvested, and the colon tissue was taken, measured with a ruler for the length, and measured with a vernier caliper for the thickness. The effects of monotropein, desacetyl asperulosidic acid, asperuloside and asperulosidic acid on expression of the vitamin D receptor were detected.
# [5] = tested on: AOM/DSS colon cancer model; experiment: AOM/DSS colon cancer model, Experiment 2 (colon length, thickness, tumors); assay type: in vivo, Balb/c mice; conditions: 2 mg/kg once a day
# Method: as §4
# [6] = tested on: SW1990 breast cancer cells; experiment: In vitro proliferation inhibition of SW1990 breast cancer cells; assay type: cell-based; conditions: concentration of 1 uM; compared with blank control group
# Method: as §1, with “SW1990” for “SMB-231 pancreatic cancer”
# [7] = tested on: transplanted tumor of SW1990 breast cancer cells; experiment: Transplanted tumor of SW1990 breast cancer cells in nude mice; assay type: in vivo; conditions: 2 mg/kg in combination with 5-fluorouracil at half dose (20 mg/kg), once a day; effect comparable to 5-fluorouracil alone 40 mg/kg
# Method: as §1, with “SW1990” for “SMB-231 pancreatic cancer”
# as §2, with “of a SW1990 cell suspension” for “of a cell suspension”
# as §3
# [8] = tested on: HT29 colon cancer cells; experiment: In vitro proliferation inhibition of HT29 colon cancer cells; assay type: cell-based; conditions: concentration of 1 uM; compared with blank control group
# Method: as §1, with “HT29” for “SMB-231 pancreatic cancer”
Structure (SMILES),proliferation of SMB-231 pancreatic cancer cells in vitro [1],tumor proliferation in HT29 tumor-bearing mice [2],tumor proliferation in SMB-231 tumor-bearing mice [3],expression of the vitamin D receptor in the colon tissues (Western blot and immunohistochemistry) [4],incidence and development of colorectal cancers [5],proliferation of SW1990 cells in vitro [6],tumor proliferation in SW1990 tumor-bearing mice [7],proliferation of HT29 colorectal cancer cells in vitro [8]
CC(=O)OCC1=C[C@@H]2OC(=O)C3=CO[C@@H](O[C@@H]4O[C@H](CO)[C@@H](O)[C@H](O)[C@H]4O)[C@H]1[C@@H]32 [asperuloside],significantly inhibit the proliferation,significantly inhibit tumor proliferation,significantly inhibit tumor proliferation,promote expression enhancement,inhibiting the incidence and development of colorectal cancers,significantly inhibit the proliferation,significantly inhibit tumor proliferation,significantly inhibit the proliferation
CC(=O)OCC1=C[C@H](O)[C@@H]2C(C(=O)O)=CO[C@@H](O[C@@H]3O[C@H](CO)[C@@H](O)[C@H](O)[C@H]3O)[C@H]12 [asperulosidic acid],significantly inhibit the proliferation,significantly inhibit tumor proliferation,significantly inhibit tumor proliferation,promote expression enhancement,inhibiting the incidence and development of colorectal cancers,significantly inhibit the proliferation,significantly inhibit tumor proliferation,significantly inhibit the proliferation
O=C(O)C1=CO[C@@H](O[C@@H]2O[C@H](CO)[C@@H](O)[C@H](O)[C@H]2O)[C@@H]2C(CO)=C[C@H](O)[C@H]12 [desacetyl asperulosidic acid],significantly inhibit the proliferation,significantly inhibit tumor proliferation,significantly inhibit tumor proliferation,promote expression enhancement,inhibiting the incidence and development of colorectal cancers,significantly inhibit the proliferation,significantly inhibit tumor proliferation,significantly inhibit the proliferation
"C=C1CC[C@H](O)C/C1=C/C=C1\CCC[C@]2(C)[C@@H]([C@H](C)CCCC(C)C)CC[C@@H]12 [vitamin D3, reference compound]",–,–,–,promote expression enhancement,–,–,–,–

# Source: patent US20210177879A1, “VITAMIN D RECEPTOR AGONIST” (Guanghzou University of Chinese Medicine, priority 2018, published 2021)
